Test systems include UO-31 renal; UACC-62 melanoma; TK-10 renal; KM12 colon; NCI-H460 lung; NCI-H522 lung; ACHN renal; SF-539 CNS; MALME-3M melanoma; EKVX NSCLC; MDA-MB-231 breast; OVCAR-5 ovarian; T-47D breast; RPMI-8226 leukemia; DU-145 prostate; MCF7 breast; PC-3 prostate; MDA-N.
Holding throughout (experiment): growth of human tumour cells (NCI), 48 h

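Method: 48-hour compound exposure of cells in 96-well plates, five concentrations, linear interpolation of endpoints. Abbreviation: GI50, concentration required for 50% inhibition of growth. TGI: concentration producing complete growth inhibition.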

In the case of `CC(Oc1ccc(OCC2CCCCC2)cc1)C(=O)NCCO` (stereo unspecified), the TGI in the test on UO-31 renal, with UACC-62 melanoma, with TK-10 renal, in the test with KM12 colon, in the test with NCI-H460 lung and in the test on NCI-H522 lung was > 100 µM each time. The TGI in the test with ACHN renal, in the test with SF-539 CNS and in the test with MALME-3M melanoma was > 100 µM throughout.

As to `Cc1ccc(C2N=C(N)NC3=C2CCOc2c3ccc3ccccc23)cc1` (stereo unspecified), the TGI in the test on UO-31 renal was > 100 µM; in the test with EKVX NSCLC, > 55.1 µM; with UACC-62 melanoma, 57.5 µM; in the test with TK-10 renal it was > 80.3 µM; in the test on KM12 colon, > 51.1 µM; in the test with MDA-MB-231 breast, 32.7 µM. Moreover, the TGI with OVCAR-5 ovarian was > 77.1 µM; with T-47D breast it was > 65.3 µM; in the test with RPMI-8226 leukemia, > 63.2 µM; in the test with NCI-H460 lung it was > 100 µM; with NCI-H522 lung, > 100 µM; in the test with ACHN renal it was > 73.7 µM. Further, the TGI in the test with SF-539 CNS was 44.7 µM; in the test with MALME-3M melanoma it was > 40.6 µM; in the test with DU-145 prostate, > 85.4 µM; in the test with MCF7 breast, > 51.5 µM; with PC-3 prostate it was > 75 µM. Further, the GI50 is 16.6 µM with ACHN renal and 4.7 µM with MALME-3M melanoma.

As to `COC(=O)c1c2c(cc3c1CC1(C3)Cc3cc4c(c(C(C)=O)c3C1)CCC4)C=CC2` (stereo unspecified), the TGI in the test on UO-31 renal, in the test with EKVX NSCLC, in the test on UACC-62 melanoma, with TK-10 renal, with KM12 colon and in the test with MDA-MB-231 breast was > 31.6 µM in each case. The TGI in the test with OVCAR-5 ovarian, with T-47D breast, with RPMI-8226 leukemia, in the test with NCI-H460 lung, with NCI-H522 lung and with ACHN renal was > 31.6 µM each time. Moreover, the TGI in the test with SF-539 CNS, in the test on DU-145 prostate, in the test with MCF7 breast and in the test on PC-3 prostate was > 31.6 µM each time.

Take `Cc1c(/C=N/NC(=S)Nc2ccccc2)c(=O)n(-c2ccccc2)n1C`: the TGI in the test on UO-31 renal, with EKVX NSCLC, in the test on UACC-62 melanoma, in the test on TK-10 renal, with KM12 colon and with MDA-MB-231 breast was > 100 µM throughout. In addition, the TGI in the test with T-47D breast, in the test on RPMI-8226 leukemia, in the test on NCI-H460 lung, in the test on ACHN renal, in the test with SF-539 CNS and in the test on DU-145 prostate was > 100 µM each time. Further, the TGI with MCF7 breast and in the test with PC-3 prostate was > 100 µM throughout.

For the compound `CC(=O)Nc1ccc(-c2nc3ccccc3s2)cc1C`, the TGI in the test with UO-31 renal, in the test with EKVX NSCLC, in the test with UACC-62 melanoma, in the test on TK-10 renal, in the test on KM12 colon and in the test on MDA-MB-231 breast was > 100 µM in each case. Further, the TGI in the test on T-47D breast was > 100 µM; with RPMI-8226 leukemia, > 100 µM; in the test on NCI-H460 lung, > 100 µM; with ACHN renal it was > 100 µM; with SF-539 CNS, > 100 µM; in the test on DU-145 prostate, 55.6 µM. In addition, the TGI in the test on MCF7 breast and in the test on PC-3 prostate was > 100 µM each time.

`c1cnc2c(c1)-n1cccc1C1(CCSC1)NN2` (stereo unspecified): the TGI in the test with UO-31 renal, in the test with EKVX NSCLC, in the test on TK-10 renal, with KM12 colon, in the test with OVCAR-5 ovarian and with RPMI-8226 leukemia was > 100 µM throughout. For the same compound, the TGI in the test with NCI-H460 lung, in the test with NCI-H522 lung, with ACHN renal, in the test on SF-539 CNS and in the test with MALME-3M melanoma was > 100 µM each time.

With `O=C(NNC(=S)Nc1ccc(Br)cc1)c1cc(-c2ccccc2)nc2ccccc12`, the TGI in the test on UO-31 renal was 36.4 µM; in the test with UACC-62 melanoma it was 50.2 µM; with TK-10 renal it was 42.2 µM; with KM12 colon, > 100 µM; with MDA-MB-231 breast, 65.9 µM; in the test on OVCAR-5 ovarian, 79.3 µM. Besides, the TGI with T-47D breast was 60.9 µM; with RPMI-8226 leukemia, 53.7 µM; in the test with NCI-H460 lung it was 43.5 µM; with NCI-H522 lung, 59 µM; in the test on ACHN renal, > 100 µM; with SF-539 CNS, 31.3 µM. For the same compound, the TGI stood at 43.6 µM in the test with MALME-3M melanoma, 40.8 µM with DU-145 prostate, 47.1 µM in the test with MCF7 breast and 46.3 µM in the test with PC-3 prostate.

For the compound `CCOC(=O)C(=[N+]=[N-])C(=O)CN1C(=O)C2CC(C)=C(C)CC2C1O` (stereo unspecified), the TGI in the test with UO-31 renal, in the test on EKVX NSCLC, in the test on UACC-62 melanoma, with TK-10 renal, in the test with KM12 colon and in the test with OVCAR-5 ovarian was > 100 µM throughout. Also, the TGI with RPMI-8226 leukemia, with NCI-H460 lung, in the test with MDA-N, with NCI-H522 lung, in the test on ACHN renal and in the test with SF-539 CNS was > 100 µM each time. For the same compound, the TGI with MALME-3M melanoma, in the test with DU-145 prostate, in the test on MCF7 breast and in the test with PC-3 prostate was > 100 µM in each case.

Regarding `Cc1ccc(NCC(=O)N2CC(=O)Nc3ccccc32)cc1`, the TGI in the test with UO-31 renal, in the test with EKVX NSCLC, in the test with UACC-62 melanoma, in the test on TK-10 renal, in the test on KM12 colon and in the test with OVCAR-5 ovarian was > 100 µM in each case. Besides, the TGI in the test on RPMI-8226 leukemia, in the test with NCI-H460 lung, in the test with NCI-H522 lung, in the test on ACHN renal, with SF-539 CNS and in the test on MALME-3M melanoma was > 100 µM in each case.

For `COc1cc(CNC2=NCCC2)cc(OC)c1OC`, the TGI in the test on UO-31 renal, in the test with EKVX NSCLC, in the test with UACC-62 melanoma, with TK-10 renal, in the test on OVCAR-5 ovarian and with NCI-H460 lung was > 100 µM throughout. For the same compound, the TGI with MDA-N, in the test with NCI-H522 lung, in the test with ACHN renal, with SF-539 CNS, with MALME-3M melanoma and in the test with DU-145 prostate was > 100 µM throughout. The TGI in the test with MCF7 breast and in the test with PC-3 prostate was > 100 µM in each case.

Source of the values: PubChem BioAssay (NCI).
